Results on four sequences are retold here after patent publication US8344101B2, “Composition for improving brain function and method for improving brain function” (Calpis Co., Ltd., priority 2009, dated 2013).

This experiment has as its system scopolamine-induced amnesia. Kind of experiment: Y-shaped maze test of spontaneous alternation behavior in mice with scopolamine-induced amnesia. As to conditions: male ddY mice, scopolamine 1 mg/kg s.c. 30 minutes before test. Format: in vivo. The method, then:
Male mice (n=15 to 30) of the ddY strain (approximately 7-week old) were used, and they took food and water ad lib. Test substances used were 150 nmol/kg weight (380 μg/kg weight) and 500 nmol/kg weight (1280 μg/kg weight) of […](SEQ ID NO: 2 ). The test substances were administered to the mice once orally […] the execution of a Y-shaped maze test for evaluation of spontaneous alternation behavior. Further, 30 minutes before the execution of the Y-shaped maze test, 1 mg/kg weight of scopolamine was subcutaneously administered on the backs of the mice in order to induce brain dysfunction (dysmnesia and/or cognitive impairment) in the mice. In the Y-shaped maze test, a Y-shaped maze was used as an experimental device, in which the length of each arm was 40 cm, the height of the wall was 12 cm, the width of the floor was 3 cm, and the width of the upper part was 10 cm, and three arms were connected to each other at an angle of 120 degrees. Each of the mice was placed at the tip of any one of the arms of the Y-shaped maze, and then let go to freely explore in the maze for 8 minutes. The sequence of the arms each of the mice entered was recorded. The number of entries by each of the mice for each of the anus during the measurement time was counted to be the total number of entries. In the sequence, the combination in which three different arms were selected in succession (for example, with the three arms respectively called A, B, and C, if the sequence of the arms entered is ABCBACACB, the count is 4 inclusive of overlapping) was investigated, and the number of the count was used as the number of spontaneous alternation behavior. The percentage of spontaneous alternation behavior was calculated by dividing the number of spontaneous alternation behavior by a number obtained by subtracting 2 from the total number of entries, and multiplying a resultant number by 100. The percentage of spontaneous alternation behavior was used as an indicator. […] The measured values were expressed in the form of mean ±standard error for each group. A significant difference between the control group and the scopolamine control group was calculated using Student's t-test. Further, a significant difference between the scopolamine control group and the […] (SEQ ID NO: 2 )-administered group was calculated using Student's t-test.
Male mice (n=15 to 30) of the ddY strain (approximately 7-week old) were used, and they took food and water ad lib. Test substances used here were: 500 nmol/kg weight (1280 μg/kg weight) of […](SEQ ID NO: 2 ); 500 nmol/kg weight (1140 μg/kg weight) of […](SEQ ID NO: 1 ) ([…]); 500 nmol/kg weight (1400 μg/kg weight) of […]([…]) (SEQ ID NO: 3 ); and 500 nmol/kg weight (1150 μg/kg weight) of Ser-Trp-Met-His-Gln-Pro-His-Gln-Pro-Leu-Pro-Pro-Thr-Val-Met-Phe-Pro-Pro-Gln (SWMHQPHQPLPPTVMFPPQ) (SEQ ID NO: 5). The test substances were administered to the mice once orally 60 minutes before the execution of a Y-shaped maze test for evaluation of spontaneous alternation behavior. Further, 30 minutes before the execution of the Y-shaped maze test, 1 mg/kg weight of scopolamine was subcutaneously administered on the backs of the mice in order to induce brain dysfunction (dysmnesia and/or cognitive impairment) in the mice. […] The arms each of the mice entered were sequentially recorded. The number of entries by each of the mice for each of the arms during the measurement time was counted to be the total number of entries. […]

[1] abbreviates: Example 2, single oral dose 500 nmol/kg weight 60 minutes before Y-shaped maze test, FIG. 2.

As for “SWMHQPHQPLPPTVMFPPQSVL (Synthetic functional peptide)”, the “prophylactic activity against amnesia (percentage of spontaneous alternation behavior)” value was “had a prophylactic activity against amnesia” (Example 1, single oral dose ranging from 150 nmol/kg weight to 500 nmol/kg weight (380 to 1280 μg/kg weight), given 60 before Y-shaped maze test, FIG. 1) and “had a prophylactic activity against amnesia” under setting [1].

For the sequence “SWMHQPHQPLPPTVMFPPQ (Synthetic comparative example peptide) [Ser-Trp-Met-His-Gln-Pro-His-Gln-Pro-Leu-Pro-Pro-Thr-Val-Met-Phe-Pro-Pro-Gln, C-terminally truncated related peptide tested for comparison]”, the “prophylactic activity against amnesia (percentage of spontaneous alternation behavior)” value under setting [1] was “did not show any activity”.

Take “MHQPHQPLPPTVMFPPQSVL (Synthetic functional peptide)”: the “prophylactic activity against amnesia (percentage of spontaneous alternation behavior)” value under setting [1] was “had a prophylactic activity against amnesia”.

For “LQSWMHQPHQPLPPTVMFPPQSVL (Synthetic functional peptide)”, the “prophylactic activity against amnesia (percentage of spontaneous alternation behavior)” value under setting [1] was “had a prophylactic activity against amnesia”.
